Data reported in ChEMBL document CHEMBL5360635 (J Med Chem, 2023).
Each block holds one compound with its values, some of them ahead of it. Activity calls are given as the source filed them. The calls are words filed in the database; no cut-off is given here.

What was measured:
[1] = target: T1, Lysine-specific demethylase 4E (Homo sapiens, UniProt B2RXH2); assay: Inhibition of KDM4E (unknown origin) by SPE-MS analysis
T1 sequence (B2RXH2 whole entry): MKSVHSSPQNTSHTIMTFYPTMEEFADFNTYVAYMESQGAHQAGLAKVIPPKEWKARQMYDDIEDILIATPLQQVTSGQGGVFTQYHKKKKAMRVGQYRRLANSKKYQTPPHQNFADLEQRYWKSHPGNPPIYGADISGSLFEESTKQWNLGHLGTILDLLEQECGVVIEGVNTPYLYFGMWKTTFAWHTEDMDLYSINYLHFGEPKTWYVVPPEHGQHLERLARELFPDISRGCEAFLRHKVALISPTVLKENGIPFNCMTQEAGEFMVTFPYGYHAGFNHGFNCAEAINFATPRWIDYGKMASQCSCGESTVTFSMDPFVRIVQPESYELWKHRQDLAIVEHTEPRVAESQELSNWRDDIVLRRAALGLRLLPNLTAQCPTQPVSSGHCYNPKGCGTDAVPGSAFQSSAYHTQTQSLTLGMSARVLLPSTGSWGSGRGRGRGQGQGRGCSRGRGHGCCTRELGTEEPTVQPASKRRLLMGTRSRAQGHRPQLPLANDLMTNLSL

[2] = Inhibition of N-terminal his6-tagged FIH (unknown origin) expressed in Escherichia coli using HIF-alpha CAD (788 to 822 residues) expressed in Escherichia coli by SPE-MS analysis; design: species or system Homo sapiens
[3] = target: Bifunctional peptidase and arginyl-hydroxylase JMJD5 (Homo sapiens, UniProt Q8N371); assay: Inhibition of N-terminal his6-tagged-thioredoxin-tagged human recombinant JMJD5 expressed in Escherichia coli using RPS6 as substrate by SPE-MS analysis
[4] = system: A549; assay: Induction of cell cycle arrest in human A549 cells assessed as accumulation at G1 phase incubated for 24 hrs by PI staining based flow cytometry; type: functional
[5] = system: A549; assay: Induction of cell cycle arrest in human A549 cells assessed as accumulation at sub G1 phase incubated for 24 hrs by PI staining based flow cytometry; type: functional
[6] = system: A549; assay: Induction of replication stress in human A549 cells increase in micronuclei at 1 uM by DAPI staining based fluorescent microscopic analysis; type: functional, cell-based
[7] = system: A549; assay: Induction of replication stress in human A549 cells increase in 53BP1 bodies at 1 uM by DAPI staining based fluorescent microscopic analysis; type: functional, cell-based
[8] = target: T1, Lysine-specific demethylase 4E; assay: Inhibition of KDM4E (unknown origin) by FDH-coupled spectrophotometric turnover assay

Bifunctional peptidase and arginyl-hydroxylase JMJD5, sequence (Q8N371 whole entry): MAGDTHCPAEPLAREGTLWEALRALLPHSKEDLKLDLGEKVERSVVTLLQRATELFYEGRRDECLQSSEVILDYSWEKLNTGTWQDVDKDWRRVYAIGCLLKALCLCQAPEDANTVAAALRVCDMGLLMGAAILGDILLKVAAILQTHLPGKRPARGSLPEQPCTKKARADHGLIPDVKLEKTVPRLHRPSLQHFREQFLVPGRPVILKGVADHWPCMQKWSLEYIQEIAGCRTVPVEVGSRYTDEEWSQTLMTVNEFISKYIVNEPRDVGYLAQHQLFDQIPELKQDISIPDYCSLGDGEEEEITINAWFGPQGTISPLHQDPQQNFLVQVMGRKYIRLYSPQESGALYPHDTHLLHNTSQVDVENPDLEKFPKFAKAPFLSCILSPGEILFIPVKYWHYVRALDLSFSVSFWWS

Compound: O=C(O)c1ccnc(C(=O)O)c1C(F)(F)F
- IC50 [1]: Not Active

Compound: COC(=O)c1cc(C(=O)OC)c(NCc2ccccc2OC)cn1
- Activity [4]: Active
- Activity [5]: Active
- Activity [6]: Active
- Activity [7]: Active

Compound: COC(=O)c1cc(C(=O)OC)c(NCc2ccccc2C2CC2)cn1
- Activity [4]: Active
- Activity [5]: Active
- Activity [6]: Active
- Activity [7]: Active

The next lines start with the values.

- IC50 [1]: Not Active
Compound: O=C(O)c1cc(C(=O)O)c(C(F)(F)F)cn1

- IC50 [2]: > 50 µM
Compound: O=C(O)c1cc(C(=O)O)c(NCc2ccccc2C2CC2)cn1

- IC50 [3]: 0.7 µM
Compound: COc1ccccc1CNc1cnc(C(=O)O)cc1C(=O)O

- IC50 [8]: 56 µM
Compound: O=C(O)c1ccnc(C(=O)O)c1Nc1ccccc1[N+](=O)[O-]
